# Patent EP4635951A1, “SALT-TYPE GLP-1 RECEPTOR AGONIST, CRYSTAL FORM THEREOF, PREPARATION METHOD THEREFOR, PHARMACEUTICAL COMPOSITION THEREOF, AND USE THEREOF” (Hangzhou Zhongmeihuadong Pharmaceutical Co., Ltd., priority 2022, dated 2024)
# How the values were obtained:
# Hygroscopicity by DVS = format: physicochemical; details: 25°C, 80%RH
# Equilibrium solubility = format: physicochemical; details: 37°C
# Experimental: After 24 hours, samples were taken. The samples were centrifuged for separation, and the supernatant after filtration was used for solubility determination.
# Human GLP-1R = target: T1, Human GLP-1R (Homo sapiens, UniProt P43220); assay: GLP-1R agonistic activity, HTRF cAMP assay in 293A GFP-GLP-1R cells; format: cell-based; details: result in words
# T1 construct: expressed in transfected cells; host or cells: 293A cells stably expressing GLP-1R-GFP
# T1 sequence (P43220 24-463): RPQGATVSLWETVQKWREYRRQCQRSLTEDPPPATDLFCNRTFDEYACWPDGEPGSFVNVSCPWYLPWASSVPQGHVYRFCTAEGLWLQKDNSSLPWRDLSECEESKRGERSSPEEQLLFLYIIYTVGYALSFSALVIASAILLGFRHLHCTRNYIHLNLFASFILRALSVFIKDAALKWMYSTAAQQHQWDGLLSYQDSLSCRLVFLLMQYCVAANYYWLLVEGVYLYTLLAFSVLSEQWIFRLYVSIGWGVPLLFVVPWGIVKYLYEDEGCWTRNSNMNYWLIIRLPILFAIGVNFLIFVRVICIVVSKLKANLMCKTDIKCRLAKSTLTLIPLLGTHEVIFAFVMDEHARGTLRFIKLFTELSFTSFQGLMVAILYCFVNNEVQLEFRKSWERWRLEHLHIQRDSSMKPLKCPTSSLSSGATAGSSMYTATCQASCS
# Description: The method was a competitive immunoassay.
# Dynamic solubility = details: for Dynamic solubility in water: 37°C±2°C
# [1] = High-temperature stability test; format: physicochemical
# [2] = Solid-state stability, long-term and accelerated conditions; format: physicochemical; details: for Purity / purity decrease: 10 days
# Description: The free Compound I was in a crystalline form, and had the XRPD pattern indicated by the arrow in Figure 50.
# [3] = Suspension competition tests between Crystal Form A and Crystal Form P; format: physicochemical; details: room temperature and 50°C
# Experimental: The suspensions of Compound Z that had been equilibrated for 2 hours under the corresponding temperature and solvent conditions were filtered to obtain saturated solutions of Compound Z under different temperature and solvent conditions, and then solid mixtures of Crystal Forms A and P of Compound Z were added. After the suspension competition was carried out for 1 day, the solids were separated for XRPD characterization.
# Pressure stability = format: physicochemical
# [4] = Water activity stability of crystal form; format: physicochemical
# High-humidity stability = format: physicochemical
# [5] = listed as Compound I in the amorphous form
# [6] = FaSSGF, 37 °C, fassgf or other biorelevant, thermodynamic from solid
# [7] = fassif, 37 °C, thermodynamic from solid
smiles,measurement,setting,value
O=C(O)c1ccc2nc(CN3CCC(c4cccc(OCc5ccc(C6COC6)cc5F)n4)CC3)n(C[C@@H]3CCO3)c2c1 [Amorphous form of Compound I],hygroscopicity class,Hygroscopicity by DVS; [5],hygroscopic (a weight gain of 2%-15% indicates hygroscopic)
same,weight gain (water absorbed),Hygroscopicity by DVS; [5],4.029%
same,solubility thermodynamic at 24 h,"Equilibrium solubility; fassif, FaSSIF (fasted-state simulated intestinal fluid)",150 µg/mL
same,solubility thermodynamic at 24 h,"Equilibrium solubility; fessif, FeSSIF (fed-state simulated intestinal fluid)",800 µg/mL
same,solubility thermodynamic at 24 h,"Equilibrium solubility; purified water, H2O (purified water)",430 µg/mL
same,solubility thermodynamic at 24 h,Equilibrium solubility; sgf (simulated gastric fluid),410 µg/mL
"O=C(O)c1ccc2nc(CN3CCC(c4cccc(OCc5ccc(C6COC6)cc5F)n4)CC3)n(C[C@@H]3CCO3)c2c1 [Compound I, (S)-2-((4-(6-((2-fluoro-4-(oxetan-3-yl)benzyl)oxy)pyridin-2-yl)piperidin-1-yl)methyl)-1-(oxetan-2-ylmethyl)-1H-benzo[d]imidazole-6-carboxylic acid]",agonistic effect on GLP-1R,Human GLP-1R,strong agonistic effect
same,solubility at 1 h,physchem; [6],100 µg/mL
same,solubility at 2 h,physchem; [6],90 µg/mL
same,solubility at 4 h,physchem; [6],110 µg/mL
same,solubility at 24 h,physchem; [6],100 µg/mL
same,solubility at 1 h,physchem; [7],40 µg/mL
same,solubility at 4 h,physchem; [7],120 µg/mL
same,solubility at 24 h,physchem; [7],210 µg/mL
same,XRPD of Residual Solid,"Dynamic solubility; FaSSGF, 1 h, listed as Free Compound I",Crystal Form A of the hydrochloride of Compound I
same,XRPD of Residual Solid,"Dynamic solubility; FaSSGF, 2 h, listed as Free Compound I",Crystal Form A of the hydrochloride of Compound I
same,Whether the crystal form changed,"Dynamic solubility; FaSSIF, 2 h",YES
same,XRPD of Residual Solid,"Dynamic solubility; FaSSIF, 2 h",Crystal Form A of Compound I
same,Dynamic solubility in water,"Dynamic solubility; FaSSIF, 2 h, listed as Free Compound I",70 µg/mL
same,Whether the crystal form changed,"Dynamic solubility; FaSSIF, 4 h",YES
same,XRPD of Residual Solid,"Dynamic solubility; FaSSIF, 4 h",Crystal Form A of Compound I
same,Whether the crystal form changed,"Dynamic solubility; FaSSIF, 24 h",YES
same,XRPD of Residual Solid,"Dynamic solubility; FaSSIF, 24 h",Crystal Form A of Compound I
same,Whether the crystal form changed,"Dynamic solubility; H2O (water), 1 h",YES
same,XRPD of Residual Solid,"Dynamic solubility; H2O (water), 1 h",Crystal Form A of Compound I
same,Dynamic solubility in water,"Dynamic solubility; H2O (water), 4 h, listed as Free Compound I",30 µg/mL
same,Dynamic solubility in water,"Dynamic solubility; H2O (water), 24 h, listed as Free Compound I",30 µg/mL
O=C(O)c1ccc2nc(CN3CCC(c4cccc(OCc5ccc(C6COC6)cc5F)n4)CC3)n(C[C@@H]3CCO3)c2c1 [Crystal Form A of Compound Z],purity decrease after 1 day,"[1]; 60°C, 1 day",no obvious decrease
same,purity after 1 day,"[1]; HPLC purity (% area), 60°C, 1 day",97.34%
same,initial purity,"[1]; HPLC purity (% area), before 60°C",97.41%
same,solubility at 1 h,physchem; [6],40 µg/mL
same,solubility at 2 h,physchem; [6],140 µg/mL
same,solubility at 4 h,physchem; [6],120 µg/mL
same,solubility at 2 h,physchem; fassif,130 µg/mL
same,solubility at 1 h,physchem; [7],130 µg/mL
same,solubility at 4 h,physchem; [7],110 µg/mL
same,solubility at 24 h,physchem; [7],280 µg/mL
same,solubility at 1 h,physchem; water,5500 µg/mL
same,solubility at 2 h,physchem; water,1380 µg/mL
same,solubility,"physchem; water, 37 °C, fassgf or other biorelevant, thermodynamic from solid",60 µg/mL
same,Purity,[2]; 25°C/60%RH,97.38 % Area
same,Purity,[2]; 40°C/75%RH,97.35 % Area
same,initial purity,"[2]; HPLC, before storage",97.41 % Area
same,purity decrease,[2]; accelerated conditions (40°C/75%RH),no obvious decrease
same,purity decrease,[2]; long-term conditions (25°C/60%RH),no obvious decrease
same,hygroscopicity class,Hygroscopicity by DVS,slightly hygroscopic (a weight gain of 0.2%-2% indicates slightly hygroscopic)
same,weight gain (water absorbed),Hygroscopicity by DVS,1.696%
same,thermodynamic stability relative to Crystal Form P,[3],thermodynamically more stable
same,Whether the crystal form changed,"Dynamic solubility; FaSSGF, 1 h",YES
same,XRPD of Residual Solid,"Dynamic solubility; FaSSGF, 1 h",Amorphous
same,Whether the crystal form changed,"Dynamic solubility; FaSSGF, 2 h",YES
same,XRPD of Residual Solid,"Dynamic solubility; FaSSGF, 2 h",Amorphous
same,Whether the crystal form changed,"Dynamic solubility; FaSSGF, 4 h",YES
same,XRPD of Residual Solid,"Dynamic solubility; FaSSGF, 4 h",Crystal Form A of the hydrochloride of Compound I
same,Whether the crystal form changed,"Dynamic solubility; FaSSGF, 24 h",YES
same,XRPD of Residual Solid,"Dynamic solubility; FaSSGF, 24 h",Crystal Form A of the hydrochloride of Compound I
same,Whether the crystal form changed,"Dynamic solubility; FaSSIF, 1 h",YES
same,XRPD of Residual Solid,"Dynamic solubility; FaSSIF, 1 h",Crystal Form A of Compound I
same,Whether the crystal form changed,"Dynamic solubility; H2O (water), 2 h",YES
same,XRPD of Residual Solid,"Dynamic solubility; H2O (water), 2 h",Crystal Form A of Compound I
same,Whether the crystal form changed,"Dynamic solubility; H2O (water), 4 h",YES
same,XRPD of Residual Solid,"Dynamic solubility; H2O (water), 4 h",Crystal Form A of Compound I
same,Dynamic solubility in water,"Dynamic solubility; H2O (water), 4 h, 240 min",1230 µg/mL
same,Whether the crystal form changed,"Dynamic solubility; H2O (water), 24 h",YES
same,XRPD of Residual Solid,"Dynamic solubility; H2O (water), 24 h",Crystal Form A of Compound I
same,Dynamic solubility in water,"Dynamic solubility; H2O (water), 24 h, 1440 min",1330 µg/mL
same,purity decrease,"Pressure stability; 1000 Mpa, 5 minutes",no obvious decrease
same,initial purity,"Pressure stability; HPLC purity (% area), before pressing",97.31%
same,solubility thermodynamic at 24 h,Equilibrium solubility; FaSSIF (fasted-state simulated intestinal fluid),1190 µg/mL
same,solubility thermodynamic at 24 h,Equilibrium solubility; FeSSIF (fed-state simulated intestinal fluid),1170 µg/mL
same,solubility thermodynamic at 24 h,Equilibrium solubility; H2O (purified water),1940 µg/mL
same,solubility thermodynamic at 24 h,Equilibrium solubility; SGF (simulated gastric fluid),1000 µg/mL
same,water activity aw at which the crystal form is stable,[4],≤ 0.388
same,purity decrease,"High-humidity stability; 90%RH, 10 days",no obvious decrease
same,initial purity,"High-humidity stability; HPLC purity (% area), before high humidity",97.41%
